Measurements taken from patent US5367078A, “3-oxadiazolyl-1,6-naphthyridine derivatives” (Dainippon Pharmaceutical Co., Ltd., priority 1992, dated 1994).

How the values were obtained:
[1] = system: pentylenetetrazole-induced clonic convulsion; test: Activity on pentylenetetrazole-induced clonic convulsion (anti-PTZ activity); assay type: in vivo, mouse (Std-ddY male); settings: Mus musculus, 2 hours before pentylenetetrazole 85 mg/kg s.c., observed 30 minutes, read-out: Number of mice having antagonistic activity/number of test mice (converted); for responders at 20 mg/kg: 20 mg/kg oral; for responders at 2 mg/kg: 2 mg/kg oral; for responders at 10 mg/kg: 10 mg/kg oral; for responders at 50 mg/kg: 50 mg/kg oral
Experimental: Experiment 2 Activity on pentylenetetrazole-induced clonic convulsion (anti-PTZ activity)
The activity on pentylenetetrazole-induced clonic convulsion of the test compound was tested according to the method of E. A. Swinyard (cf. Anticonvulsant Drugs. Mercier, J., Ed., pp. 47-65, Pergamon Press, New York (1973)). In this test, petit real-type antiepileptics and most of benzodiazepine drugs show positive results.
A test compound was administered orally to Std-ddY male mice (weight; 20-25 g, five mice/group). […] When no clonic convulsion was observed, it was determined that the test compound had antagonistic activity.

[2] = target: benzodiazepine receptor; test: Benzodiazepine receptor binding assay ([^3 H]-diazepam); settings: [^3 H]-diazepam 1.5 nM, rat brain crude synaptosome membrane, pH 7.4, 0° C., 20 minutes

SMILES | IC50 [2] [nM] | further results
COc1cccc(CN2CCc3[nH]c(=O)c(-c4nnc(OC)o4)cc3C2)c1 [Example 17] | – | responders at 20 mg/kg [1]: 60%
O=c1[nH]c2c(cc1-c1nnc(-c3ccccc3)o1)CN(Cc1ccccc1)CC2 [Example 58] | 14.6 | –
COc1nnc(-c2cc3c([nH]c2=O)CCN(Cc2cccc(F)c2F)C3)o1 [Example 29] | 5.46 | –
COc1nnc(-c2cc3c([nH]c2=O)CCN(Cc2c(F)cccc2F)C3)o1 [Example 35] | – | responders at 2 mg/kg [1]: 100%
COc1nnc(-c2cc3c([nH]c2=O)CCN(Cc2cccc([N+](=O)[O-])c2)C3)o1 [Example 23] | – | responders at 10 mg/kg [1]: 80%
COc1nnc(-c2cc3c([nH]c2=O)CCN(Cc2ccccc2)C3)o1 [Example 6, 6-benzyl-3-(5-methoxy-1,3,4-oxadiazol-2-yl)-5,6,7,8-tetrahydro-1,6-naphthyridine-2(1H)-one] | 9.91 | responders at 50 mg/kg [1]: 100%
O=c1[nH]c2c(cc1-c1nnc(-c3ccco3)o1)CN(Cc1ccccc1)CC2 [Example 64] | 4.09 | –
COc1nnc(-c2cc3c([nH]c2=O)CCN(Cc2cc(F)ccc2Cl)C3)o1 [Example 52] | 19.3 | responders at 10 mg/kg [1]: 100%
COc1cccc(CN2CCc3[nH]c(=O)c(-c4nnc(C5CC5)o4)cc3C2)c1 [Example 86] | 7.91 | –
CC(C)c1nnc(-c2cc3c([nH]c2=O)CCN(Cc2ccccc2)C3)o1 [Example 56] | 35.1 | responders at 50 mg/kg [1]: 80%
COc1nnc(-c2cc3c([nH]c2=O)CCN(Cc2ccccc2Br)C3)o1 [Example 26] | 14.1 | responders at 2 mg/kg [1]: 60%
COc1nnc(-c2cc3c([nH]c2=O)CCN(Cc2ccccc2C(F)(F)F)C3)o1 [Example 33] | – | responders at 10 mg/kg [1]: 80%
COc1nnc(-c2cc3c([nH]c2=O)CCN(Cc2ccc(Cl)cc2)C3)o1 [Example 7] | 13.5 | responders at 50 mg/kg [1]: 100%
O=c1[nH]c2c(cc1-c1nnc(-c3cccs3)o1)CN(Cc1ccccc1)CC2 [Example 60] | 1.58 | responders at 50 mg/kg [1]: 100%
CCc1nc(-c2cc3c([nH]c2=O)CCN(Cc2ccccc2)C3)no1 [Example 120] | 4.4 | responders at 10 mg/kg [1]: 90%
Cc1cccc(CN2CCc3[nH]c(=O)c(-c4nc(C5CC5)no4)cc3C2)c1 [Example 160] | 3.75 | –

SMILES | IC50 [2] [nM] | further results
O=c1[nH]c2c(cc1-c1nnc(C3CC3)o1)CN(Cc1ccccc1F)CC2 [Example 89] | – | responders at 50 mg/kg [1]: 100%
O=c1[nH]c2c(cc1-c1nnc(C3CC3)o1)CN(Cc1ccccc1)CC2 [Example 55, 6-benzyl-3-(5-cyclopropyl-1,3,4-oxadiazol-2-yl)-5,6,7,8-tetrahydro-1,6-naphthyridin-2(1H)-one] | 3.91 | responders at 50 mg/kg [1]: 100%
COc1nnc(-c2cc3c([nH]c2=O)CCN(Cc2c(F)ccc(F)c2F)C3)o1 [Example 36] | – | responders at 2 mg/kg [1]: 100%
COc1nnc(-c2cc3c([nH]c2=O)CCN(Cc2ccccc2Cl)C3)o1 [Example 10] | 6.95 | responders at 20 mg/kg [1]: 100%
COc1nnc(-c2cc3c([nH]c2=O)CCN(Cc2cccc(F)c2)C3)o1 [Example 13] | – | responders at 20 mg/kg [1]: 100%
COc1ccc(CN2CCc3[nH]c(=O)c(-c4nnc(C5CC5)o4)cc3C2)cc1 [Example 85] | – | responders at 50 mg/kg [1]: 80%
COc1nnc(-c2cc3c([nH]c2=O)CCN(Cc2cccc(Cl)c2F)C3)o1 [Example 32] | 2.49 | –
Cc1cccc(CN2CCc3[nH]c(=O)c(-c4nnc(C5CC5)o4)cc3C2)c1 [Example 81] | 5.17 | –
O=c1[nH]c2c(cc1-c1nnc(C3CC3)o1)CN(Cc1cccc(Cl)c1)CC2 [Example 83] | – | responders at 50 mg/kg [1]: 100%
Cc1cc(-c2nnc(-c3cc4c([nH]c3=O)CCN(Cc3ccccc3)C4)o2)no1 [Example 66] | 10.1 | responders at 50 mg/kg [1]: 100%
Cc1ccc(CN2CCc3[nH]c(=O)c(-c4nnc(C5CC5)o4)cc3C2)cc1 [Example 80] | – | responders at 50 mg/kg [1]: 80%
COc1nnc(-c2cc3c([nH]c2=O)CCN(Cc2cc(F)ccc2Br)C3)o1 [Example 38] | 4.55 | responders at 2 mg/kg [1]: 80%
C=C(C)c1nnc(-c2cc3c([nH]c2=O)CCN(Cc2ccccc2)C3)o1 [Example 111, 6-benzyl-3-(5-isopropenyl-1,3,4-oxadazol-2-yl)-5,6,7,8-tetrahydro-1,6-naphthyridin-2(1H)-one] | – | responders at 50 mg/kg [1]: 100%
CCCc1nnc(-c2cc3c([nH]c2=O)CCN(Cc2ccccc2)C3)o1 [Example 62] | 13.8 | –
O=c1[nH]c2c(cc1-c1nnc(C3CC3)o1)CN(Cc1ccc(Cl)cc1)CC2 [Example 82] | 8.98 | –
O=c1[nH]c2c(cc1-c1nnc(-c3ccccc3Cl)o1)CN(Cc1ccccc1)CC2 [Example 61] | 6.25 | –

Further lines, with some results ahead:

IC50 [2] [nM] | SMILES | further results
2.5 | CCCc1noc(-c2cc3c([nH]c2=O)CCN(Cc2ccccc2)C3)n1 [Example 147] | –
3.51 | O=c1[nH]c2c(cc1-c1nc(C3CC3)no1)CN(Cc1cccc(Cl)c1)CC2 [Example 153] | –
2.19 | O=c1[nH]c2c(cc1-c1nc(C3CC3)no1)CN(Cc1ccccc1)CC2 [Example 143] | responders at 10 mg/kg [1]: 60%
11 | O=c1[nH]c2c(cc1-c1nc(C3CC3)no1)CN(Cc1ccc(Cl)cc1)CC2 [Example 154] | –
6.08 | O=c1[nH]c2c(cc1-c1nc(C3CC3)no1)CN(Cc1ccccc1Br)CC2 [Example 155] | –
2.71 | O=c1[nH]c2c(cc1-c1nc(C3CC3)no1)CN(Cc1ccccc1F)CC2 [Example 157] | –
8.63 | CCCc1nc(-c2cc3c([nH]c2=O)CCN(Cc2ccccc2)C3)no1 [Example 125] | –
8.64 | O=c1[nH]c2c(cc1-c1nc(-c3cccs3)no1)CN(Cc1ccccc1)CC2 [Example 145] | –
4.62 | O=c1[nH]c2c(cc1-c1nnc(C3CC3)o1)CN(Cc1cccc(F)c1)CC2 [Example 88] | –
3.73 | O=c1[nH]c2c(cc1-c1nc(C3CC3)no1)CN(Cc1cccc(F)c1)CC2 [Example 158] | –
5.4 | CC(C)c1nc(-c2cc3c([nH]c2=O)CCN(Cc2ccccc2)C3)no1 [Example 124] | responders at 10 mg/kg [1]: 60%
3.24 | CCc1noc(-c2cc3c([nH]c2=O)CCN(Cc2ccccc2)C3)n1 [Example 142] | responders at 10 mg/kg [1]: 80%
5.96 | Cc1nc(-c2cc3c([nH]c2=O)CCN(Cc2ccccc2)C3)no1 [Example 122] | responders at 10 mg/kg [1]: 100%
8.15 | Cc1ccccc1CN1CCc2[nH]c(=O)c(-c3nc(C4CC4)no3)cc2C1 [Example 159] | –
22.8 | O=c1[nH]c2c(cc1-c1nc(-c3ccccc3)no1)CN(Cc1ccccc1)CC2 [Example 141, 6-benzyl-3-(3-phenyl-1,2,4-oxadiazol-5-yl)-5,6,7,8-tetrahydro-1,6-naphthyridin-2(1H)-one] | –
23.1 | CCc1nnc(-c2cc3c([nH]c2=O)CCN(Cc2ccccc2)C3)o1 [Example 91] | responders at 50 mg/kg [1]: 100%
6.68 | O=c1[nH]c2c(cc1-c1nc(C3CC3)no1)CN(Cc1cccc(Br)c1)CC2 [Example 156] | –
1.29 | O=c1[nH]c2c(cc1-c1noc(C3CC3)n1)CN(Cc1ccccc1)CC2 [Example 119, 6-benzyl-3-(5-cyclopropyl-1,2,4-oxadiazol-3-yl)-5,6,7,8-tetrahydro-1,6-naphthyridin-2(1H)-one] | responders at 10 mg/kg [1]: 100%
9.11 | CC(C)c1noc(-c2cc3c([nH]c2=O)CCN(Cc2ccccc2)C3)n1 [Example 146] | –
4.9 | O=c1[nH]c2c(cc1-c1nc(C3CC3)no1)CN(Cc1ccccc1Cl)CC2 [Example 152] | –
50.3 | O=c1[nH]c2c(cc1-c1nnc(C(F)(F)F)o1)CN(Cc1ccccc1)CC2 [Example 115] | –
12.5 | O=c1[nH]c2c(cc1-c1noc(-c3cccs3)n1)CN(Cc1ccccc1)CC2 [Example 123] | –
62.4 | O=c1[nH]c2c(cc1-c1noc(-c3ccccc3)n1)CN(Cc1ccccc1)CC2 [Example 121] | –
